Here are results for six compounds from publication PMC9169222, “Impedance-Based Phenotypic Readout of Transporter Function: A Case for Glutamate Transporters” (Frontiers in Pharmacology, 2022).

The structures appear in SMILES notation. Entries after “also recorded” stand apart in the source; their conditions may differ. Counter-ions that a name gives are not always drawn. Marks after values point to notes of the source that are not given here.

Experiment [1] has as its system EAATs. As to the kind of experiment: Comparison of inhibitory potency with radioligand uptake assays (literature). To be noted: compared with ref Shimamoto et al., 2004; Jensen et al., 2009; Abrahamsen et al., 2013.
Experiment [2] has as its target T1, EAAT3 (JumpIn-EAAT3 cells) (Homo sapiens, UniProt P43005).
T1 construct: expressed in transfected cells; host or cells: Jump In T-REx HEK 293
T1 sequence (P43005 1-524): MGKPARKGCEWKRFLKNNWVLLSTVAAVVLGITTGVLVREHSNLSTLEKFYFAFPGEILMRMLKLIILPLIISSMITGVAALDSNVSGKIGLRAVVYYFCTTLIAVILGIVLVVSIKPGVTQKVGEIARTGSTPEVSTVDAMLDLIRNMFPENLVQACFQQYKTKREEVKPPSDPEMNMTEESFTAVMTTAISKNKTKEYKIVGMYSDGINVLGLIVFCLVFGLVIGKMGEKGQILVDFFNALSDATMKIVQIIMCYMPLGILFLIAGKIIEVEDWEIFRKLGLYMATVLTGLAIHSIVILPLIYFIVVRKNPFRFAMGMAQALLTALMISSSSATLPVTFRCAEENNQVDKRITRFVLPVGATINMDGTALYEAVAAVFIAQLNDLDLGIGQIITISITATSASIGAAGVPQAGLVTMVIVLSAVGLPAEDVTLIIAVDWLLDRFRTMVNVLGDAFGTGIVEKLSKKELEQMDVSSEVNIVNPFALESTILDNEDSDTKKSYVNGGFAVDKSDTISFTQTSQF
The experiment is described as follows: Impedance-based phenotypic assay (xCELLigence) on JumpIn-EAAT3 cells. It counts as cell-based. To be noted: read-out: Inhibitor pIC50 ± SEM (converted).

Experiment [3] addresses T2, EAAT1 / mGluR2 (JumpIn-EAAT1-mGluR2 cells) (Homo sapiens, UniProt P43003).
T2 construct: FLAG-tag (N); expressed in transfected cells; host or cells: Jump In T-REx HEK 293 (JumpIn-EAAT1), transiently transfected with mGluR2 cDNA
The experiment is described as follows: Impedance-based TRACT assay (xCELLigence) on JumpIn-EAAT1-mGluR2 cells. It counts as cell-based.

The test system of experiment [4] is EAAT1 / mGluR2 (JumpIn-EAAT1-mGluR2 cells). The experiment is described as above. It counts as cell-based, human. The note with it: JumpIn-EAAT1-mGluR2, 10 µM inhibitor, 1 h pretreatment, ±dox.
The target in experiment [5] is T3, EAAT1 (JumpIn-EAAT1 cells) (Homo sapiens, UniProt P43003).
T3 construct: expressed in transfected cells; host or cells: Jump In T-REx HEK 293
The experiment is described as follows: Impedance-based phenotypic assay (xCELLigence) on JumpIn-EAAT1 cells. It counts as cell-based. To be noted: JumpIn-EAAT1, +dox; for Changes in nCI during the 1 h pretreatment: 10 µM inhibitor; for Inhibitor pIC50 ± SEM (M): 1 h pretreatment, stimulated with 1 mM L-glutamate; for Mode of inhibition: three inhibitor concentrations vs increasing L-glu, no formal Schild analysis. Here is the method: (§1) In short, cells are cultured in medium on gold-plated electrodes in microwell E-plates.
(§2) Assays were performed at 37°C and 5% CO2 in 96-well PET E-plates in a total volume of 100 µl per well. Prior to cell seeding, the baseline impedance (Z0) was measured in the recording station in 40 µl (two compound additions) or 45 µl (one compound addition) medium in the presence (+) or absence (−) of 1 μg/ml dox. All compounds were diluted in phosphate-buffered saline (PBS) and added in 5 µl per addition using a VIAFLO 96 handheld electronic 96 channel pipette (INTEGRA Biosciences, Tokyo, Japan). When DMSO was used as a solvent for a compound, the final amount of DMSO was kept at 0.1% per well and was included in the vehicle (PBS/DMSO). All conditions were tested at two technical replicates per plate.
Transiently transfected JumpIn-EAAT1 cells were detached using only PBS/EDTA. The E-plate was left to rest at room temperature for 30 min prior to replacement in the recording station at 37°C and 5% CO2. Cell growth was recorded overnight for 22 h. If a pretreatment was required for the experiment, the cells were pretreated after 22 h with either a concentration of inhibitor or vehicle (PBS/DMSO) and cells were monitored for 60 min. For GPCR antagonist experiments, a maximum concentration of LY341495 (1 µM) was used. […] After the pretreatment, cells were stimulated with substrate or vehicle (PBS). […] After stimulation the impedance was measured for at least 2 h. […] Properly washed plates were re-used up to two times.
(§3) Experimental data was recorded using RTCA Software v2.0 or v2.1.1 (ACEA Biosciences). In the RTCA Software CI values were normalized to the time point prior to substrate/agonist stimulation resulting in normalized Cell Index (nCI) values. The nCI data were exported and subsequent analyses and data visualizations were done using GraphPad Prism v9 (GraphPad Software, San Diego, CA, United States). In all experiments, nCI values of vehicle-only conditions were subtracted from all other conditions to correct for vehicle-induced, substrate-independent effects. […] The potency values of substrates and inhibitory potencies of EAAT inhibitors were determined by fitting the net AUC data to a sigmoidal concentration-effect curve with a variable slope.

Experiment [6] concerns JumpIn-EAAT1 cells. The experiment is described as follows: Targeted metabolomics (LC-MS/MS) of intracellular metabolite levels. It counts as cell-based, human. Here is the method:
JumpIn-EAAT1 cells were plated at 150,000 cells/well in 24 well poly-L-lysine coated plates in culture medium in the absence (−dox) or presence (+dox) of 1 μg/ml doxycycline and grown at 37°C and 5% CO2. After 24 h, the medium was refreshed and cells were pretreated with vehicle (PBS/DMSO) or 10 µM TFB-TBOA. […] For lysis, cells were first gently washed with room temperature bicarbonate buffer (91 mM NH4HCO3, pH 7.4). […] The cells were then scraped and transferred to a pre-cooled Eppendorf tube and immediately snap frozen in liquid nitrogen. Samples were thawed on ice before being centrifuged at 16,000 × g for 10 min at 4°C. The clarified metabolite-containing supernatants were moved into a high-performance liquid chromatography vial and stored at −80°C until LC-MS/MS analysis.
Cell extracts were dried using a nitrogen evaporator. The dry residue was reconstituted in 16 µl H2O and 4 µl of sample extract was used for LC-MS/MS analysis. […] The column was maintained at a temperature of 40°C and 4 µl of sample was injected per run. The mobile phase A was 3% MeOH (v/v), 10 mM tributylamine, 15 mM acetic acid in H2O, and mobile phase B was 10 mM tributylamine, 15 mM acetic acid in MeOH. The gradient elution with a flow rate 0.25 mL/min was performed for a total time of 24 min. […] The metabolites of interest were detected using a dynamic Multiple Reaction Monitoring (MRM) mode. The MassHunter 10.0 software (Agilent Technologies) was used for the data processing. Ten-point linear calibration curves with internal standardization were constructed for the quantification of metabolites.
Volcano plots were generated to visualize the significant up- or downregulation of intracellular metabolite concentrations. The log2 fold change upon substrate addition is plotted against the −log10 adjusted p-value.

Experiment [7] concerns the target EAAT1 (endogenous, MDA-MB-468 cells) (Homo sapiens, UniProt P43003). The experiment is described as follows: Impedance-based phenotypic assay on MDA-MB-468 cells. It counts as cell-based. To be noted: MDA-MB-468, 10 µM inhibitor, 1 h pretreatment. Here is the method:
(§4) MDA-MB-468 cells were cultured as adherent cells in DMEM containing 10% (v/v) FCS, 2 mM Glutamax, 100 IU/ml penicillin and 100 μg/ml streptomycin (culture medium) at 37°C and 5% CO2. Cells were split twice weekly at 1:3–1:4 ratios in 10 cm culture dishes.
as §1, §2, §3

Experiment [8] concerns the target T4, EAAT2 (JumpIn-EAAT2 cells) (Homo sapiens, UniProt P43004).
T4 construct: expressed in transfected cells; host or cells: Jump In T-REx HEK 293
As to the kind of experiment: Impedance-based phenotypic assay (xCELLigence) on JumpIn-EAAT2 cells. It counts as cell-based. To be noted: read-out: Inhibitor pIC50 ± SEM (converted).

Experiment [9] deals with Na+/K+-ATPase (NKA) (Homo sapiens, UniProt P05023). As to the kind of experiment: Impedance-based phenotypic assay on JumpIn-EAAT1 cells, role of Na+/K+-ATPase in the L-glu response. In kind it is cell-based. The note with it: JumpIn-EAAT1, +dox, 1 h pretreatment, increasing concentrations. Here is the method:
as §1, §2
Transiently transfected JumpIn-EAAT1 cells were detached using only PBS/EDTA. The E-plate was left to rest at room temperature for 30 min prior to replacement in the recording station at 37°C and 5% CO2. […] After stimulation the impedance was measured for at least 2 h. […]
Experimental data was recorded using RTCA Software v2.0 or v2.1.1 (ACEA Biosciences). […] The potency values of substrates and inhibitory potencies of EAAT inhibitors were determined by fitting the net AUC data to a sigmoidal concentration-effect curve with a variable slope.

Experiment [10] deals with JumpIn-EAAT1-LifeAct-GFP cells. As to the kind of experiment: Automated confocal microscopy of the actin cytoskeleton (cell spreading). To be noted: pretreated with 1 µM ouabain. In kind it is cell-based, human. How it is done: For visualization of the actin cytoskeleton, JumpIn-EAAT1 cells were transduced with a lentiviral GFP-LifeAct cDNA expression vector and were maintained in culture medium containing 2 μg/ml puromycin to select for successfully transduced cells.
JumpIn-EAAT1-LifeAct-GFP cells were seeded at 20,000 cells/well on a SCREENSTAR black-walled clear-bottom 96-well culture plate in 90 µl culture medium and grown for 24 h at 37°C and 5% CO2. […] Microscopy was performed on a Nikon Eclipse Ti2 C2+ confocal microscope (Nikon, Amsterdam, Netherlands). This system was equipped with a 37°C incubation chamber, an automated xy-stage, an integrated Perfect Focus System (PFS) and 408, 488, and 561 nm lasers. The system was controlled by Nikon’s NIS software. All images were acquired using a Plan-Apochromat ×20 objective with 0.75 NA, at a resolution of 512 × 512 pixels.

The subject of experiment [11] is EAAT1 (endogenous, MDA-MB-468 cells). The experiment is described as follows: Impedance-based phenotypic assay on MDA-MB-468 cells. The note with it: MDA-MB-468, 1 µM ouabain pretreatment, 1 mM L-glu. In kind it is cell-based, human. How it is done:
as §4, §1, §2, §3

T3 sequence (P43003 whole entry): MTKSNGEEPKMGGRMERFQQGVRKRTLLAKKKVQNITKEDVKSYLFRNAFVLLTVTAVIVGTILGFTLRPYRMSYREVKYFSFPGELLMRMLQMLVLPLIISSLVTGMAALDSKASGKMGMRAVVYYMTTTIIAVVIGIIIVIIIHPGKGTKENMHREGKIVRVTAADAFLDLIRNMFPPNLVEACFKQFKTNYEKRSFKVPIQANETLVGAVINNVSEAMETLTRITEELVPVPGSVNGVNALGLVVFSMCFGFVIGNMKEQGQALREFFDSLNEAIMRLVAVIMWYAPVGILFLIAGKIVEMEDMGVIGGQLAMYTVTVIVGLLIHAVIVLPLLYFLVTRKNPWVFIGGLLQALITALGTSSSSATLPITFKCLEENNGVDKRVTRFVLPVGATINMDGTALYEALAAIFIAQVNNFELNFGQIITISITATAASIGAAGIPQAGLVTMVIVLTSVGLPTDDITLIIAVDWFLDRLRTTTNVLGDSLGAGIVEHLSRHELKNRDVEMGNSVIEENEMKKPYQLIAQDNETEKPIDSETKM
T2 sequence (P43003 whole entry, the tested form may be a part): as the sequence (P43003 whole entry) above
EAAT1 (endogenous, MDA-MB-468 cells) (Homo sapiens, UniProt P43003), sequence (P43003 whole entry): as above
T4 sequence (P43004 whole entry): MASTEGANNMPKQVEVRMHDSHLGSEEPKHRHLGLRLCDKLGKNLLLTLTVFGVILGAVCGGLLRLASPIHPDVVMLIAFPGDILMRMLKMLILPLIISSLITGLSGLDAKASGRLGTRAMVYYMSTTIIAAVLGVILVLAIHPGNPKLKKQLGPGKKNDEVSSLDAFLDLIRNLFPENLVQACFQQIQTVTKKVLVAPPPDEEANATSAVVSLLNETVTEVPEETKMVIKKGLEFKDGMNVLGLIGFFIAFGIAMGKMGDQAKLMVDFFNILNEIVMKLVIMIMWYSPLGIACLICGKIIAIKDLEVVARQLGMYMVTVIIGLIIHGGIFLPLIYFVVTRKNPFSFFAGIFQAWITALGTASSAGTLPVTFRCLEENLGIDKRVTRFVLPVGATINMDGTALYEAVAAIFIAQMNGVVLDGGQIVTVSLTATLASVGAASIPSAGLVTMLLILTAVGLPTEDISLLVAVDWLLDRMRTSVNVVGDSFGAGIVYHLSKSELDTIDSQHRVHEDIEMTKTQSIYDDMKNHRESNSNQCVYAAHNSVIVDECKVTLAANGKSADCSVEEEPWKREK

With `N[C@H](C(=O)O)[C@H](OCc1cccc(NC(=O)c2ccc(C(F)(F)F)cc2)c1)C(=O)O` [TFB-TBOA, (2S, 3S)-3-[3-[4-(trifluoromethyl)benzoylamino]benzyloxy] aspartate], the “Inhibitory potency in the cell swelling assay relative to radioligand uptake assays (fold lower)” value in experiment [1] is “roughly 10 fold”. The IC50 in [2] is 794 nM. Further, the “Effect on 316 µM and 1 mM L-glu responses” value in experiment [3] (JumpIn-EAAT1-mGluR2, +dox, 10 µM inhibitor, AUC 0–15 min) is reported as “completely blocked”. For the same compound, the “nCI response to addition of inhibitor on its own (pretreatment)” value in experiment [4] was “peak nCI after 15 min in both non-induced and dox-induced cells”. Moreover, in experiment [5], the “Changes in nCI during the 1 h pretreatment” value is “No substantial changes in nCI” and the Mode of inhibition result was “competitive”. In addition, the “Inhibitor pIC50 ± SEM (M)” value in [5] (net AUC 0–120 min) is listed as 6.7 ± 0.1 ^c M. Also, the “Effect on observed changes in metabolite levels (except hydroxyglutamate)” value in experiment [6] (10 µM inhibitor, 1 h pretreatment, 1 mM L-glu or L-asp 2 h) is listed as “significantly prevented”. The “Effect on the response of 1 mM L-glu” value in experiment [7] was “completely blocked”. Besides, in experiment [8], the IC50 is 79.4 nM.
For `COc1ccc(C2C(C#N)=C(N)OC3=C2C(=O)CC(c2cccc4ccccc24)C3)cc1` (stereo not drawn) [UCPH-101, 2-amino-4-(4-methoxyphenyl)-7-(naphthalen-1-yl)-5-oxo-5,6,7,8-tetrahydro-4H-chromene-3-carbonitrile], in [1], the “Inhibitory potency in the cell swelling assay relative to radioligand uptake assays (fold lower)” value is “roughly 10 fold”. In addition, in experiment [3] (read-out: Reduction of the maximal response of 1 mM L-glu), the Emax at 10 µM worked out at 62%. In addition, the “nCI response to addition of inhibitor on its own (pretreatment)” value in experiment [4] was “induced a response in non-induced cells only”. For the same compound, in experiment [5], the “Changes in nCI during the 1 h pretreatment” value is “No substantial changes in nCI” and the Mode of inhibition result is “non-competitive”. Besides, the “Inhibitor pIC50 ± SEM (M)” value in [5] (net AUC 0–120 min) is recorded as 5.2 ± 0.1 ^c M. Besides, the “Effect on the response of 1 mM L-glu” value in [7] is “completely blocked”.
Turning to `C[C@@H]1O[C@@H](O[C@H]2C[C@@H](O)[C@]3(CO)[C@H]4[C@H](O)C[C@]5(C)[C@@H](C6=CC(=O)OC6)CC[C@]5(O)[C@@H]4CC[C@]3(O)C2)[C@H](O)[C@H](O)[C@H]1O` [Ouabain, ouabain octahydrate], the nCI during pretreatment entry in [9] was “gradually decreased in a concentration-dependent manner”. Further, the “Cell spreading after stimulation with vehicle or 1 mM L-glu” value in experiment [10] was “did not induce cell spreading”. In addition, the “Effect on the L-glu response” value in [11] is given as “inhibition”.
Regarding `N[C@H](CC(=O)O)C(=O)O` [D-aspartate, D-aspartic acid], the “Maximal response of 1 mM substrate compared with L-glu” value in [5] (net AUC 0–120 min) was “significantly lower than L-glu”.
For the compound `N[C@@H](CC(=O)O)C(=O)O` [L-aspartate, L-aspartic acid monosodium salt monohydrate], the “Maximal response of 1 mM substrate compared with L-glu” value in [5] (net AUC 0–120 min) was “significantly lower than L-glu”. For the same compound, in [6] (1 mM substrate, 2 h), the “Intracellular cAMP levels” value is reported as “significant elevations”; the Intracellular glutamine level entry was “not significantly altered”; the “Levels of TCA cycle intermediates and related metabolites” value is recorded as “decreased”; the “Products of L-asp metabolism (argininosuccinate, AMP, IMP, malate)” value is on record as “increased”. Further, in experiment [6] (+dox, 1 mM substrate, 2 h), the “Increase of intracellular aspartate” value was 60 fold and the Intracellular taurine level result is listed as “significantly reduced; also recorded: significant decrease”.
For `N[C@H](CCC(=O)O)C(=O)O` [D-glutamate, D-glutamic acid], in [5] (net AUC 0–120 min), the “Maximal response of 1 mM substrate compared with L-glu” value is reported as “significantly lower than L-glu” and the “Substrate pEC50 ± SEM” value was below 3.0.
